biological target: T1, Met–Tai (D. melanogaster Met co-expressed with Tai) (Drosophila melanogaster, UniProt Q9VYW2, T103P); experiment: yeast lacZ reporter gene assay (beta-galactosidase, ONPG); type: cell-based; settings: not given
T1 construct: full-length Met ORF (codon 103 CCC, Pro); heterodimer; with Taiman
Description: yeast lacZ reporter gene assay (beta-galactosidase, ONPG) on Met–Tai (D. melanogaster Met co-expressed with Tai)

T1 sequence (Q9VYW2 1-716 T103P): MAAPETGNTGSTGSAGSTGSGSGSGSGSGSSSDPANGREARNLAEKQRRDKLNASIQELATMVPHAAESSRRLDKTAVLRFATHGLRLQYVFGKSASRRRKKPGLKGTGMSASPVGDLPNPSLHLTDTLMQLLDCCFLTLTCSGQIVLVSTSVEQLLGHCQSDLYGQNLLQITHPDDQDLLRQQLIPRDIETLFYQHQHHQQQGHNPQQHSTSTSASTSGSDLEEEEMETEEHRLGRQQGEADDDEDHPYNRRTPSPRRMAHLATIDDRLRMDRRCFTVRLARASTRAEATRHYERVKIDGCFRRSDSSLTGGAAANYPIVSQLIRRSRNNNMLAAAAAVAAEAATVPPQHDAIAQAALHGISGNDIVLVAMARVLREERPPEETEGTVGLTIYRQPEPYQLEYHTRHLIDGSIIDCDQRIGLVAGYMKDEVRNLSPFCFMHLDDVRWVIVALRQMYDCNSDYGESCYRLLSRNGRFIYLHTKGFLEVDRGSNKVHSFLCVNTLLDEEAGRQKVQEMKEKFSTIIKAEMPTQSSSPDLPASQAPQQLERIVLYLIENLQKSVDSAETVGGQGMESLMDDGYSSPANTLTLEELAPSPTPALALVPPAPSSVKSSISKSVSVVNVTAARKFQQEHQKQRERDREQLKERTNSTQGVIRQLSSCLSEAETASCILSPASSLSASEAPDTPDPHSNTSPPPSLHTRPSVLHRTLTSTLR
T1 sequence (Q9VLD9 1-2026 partner): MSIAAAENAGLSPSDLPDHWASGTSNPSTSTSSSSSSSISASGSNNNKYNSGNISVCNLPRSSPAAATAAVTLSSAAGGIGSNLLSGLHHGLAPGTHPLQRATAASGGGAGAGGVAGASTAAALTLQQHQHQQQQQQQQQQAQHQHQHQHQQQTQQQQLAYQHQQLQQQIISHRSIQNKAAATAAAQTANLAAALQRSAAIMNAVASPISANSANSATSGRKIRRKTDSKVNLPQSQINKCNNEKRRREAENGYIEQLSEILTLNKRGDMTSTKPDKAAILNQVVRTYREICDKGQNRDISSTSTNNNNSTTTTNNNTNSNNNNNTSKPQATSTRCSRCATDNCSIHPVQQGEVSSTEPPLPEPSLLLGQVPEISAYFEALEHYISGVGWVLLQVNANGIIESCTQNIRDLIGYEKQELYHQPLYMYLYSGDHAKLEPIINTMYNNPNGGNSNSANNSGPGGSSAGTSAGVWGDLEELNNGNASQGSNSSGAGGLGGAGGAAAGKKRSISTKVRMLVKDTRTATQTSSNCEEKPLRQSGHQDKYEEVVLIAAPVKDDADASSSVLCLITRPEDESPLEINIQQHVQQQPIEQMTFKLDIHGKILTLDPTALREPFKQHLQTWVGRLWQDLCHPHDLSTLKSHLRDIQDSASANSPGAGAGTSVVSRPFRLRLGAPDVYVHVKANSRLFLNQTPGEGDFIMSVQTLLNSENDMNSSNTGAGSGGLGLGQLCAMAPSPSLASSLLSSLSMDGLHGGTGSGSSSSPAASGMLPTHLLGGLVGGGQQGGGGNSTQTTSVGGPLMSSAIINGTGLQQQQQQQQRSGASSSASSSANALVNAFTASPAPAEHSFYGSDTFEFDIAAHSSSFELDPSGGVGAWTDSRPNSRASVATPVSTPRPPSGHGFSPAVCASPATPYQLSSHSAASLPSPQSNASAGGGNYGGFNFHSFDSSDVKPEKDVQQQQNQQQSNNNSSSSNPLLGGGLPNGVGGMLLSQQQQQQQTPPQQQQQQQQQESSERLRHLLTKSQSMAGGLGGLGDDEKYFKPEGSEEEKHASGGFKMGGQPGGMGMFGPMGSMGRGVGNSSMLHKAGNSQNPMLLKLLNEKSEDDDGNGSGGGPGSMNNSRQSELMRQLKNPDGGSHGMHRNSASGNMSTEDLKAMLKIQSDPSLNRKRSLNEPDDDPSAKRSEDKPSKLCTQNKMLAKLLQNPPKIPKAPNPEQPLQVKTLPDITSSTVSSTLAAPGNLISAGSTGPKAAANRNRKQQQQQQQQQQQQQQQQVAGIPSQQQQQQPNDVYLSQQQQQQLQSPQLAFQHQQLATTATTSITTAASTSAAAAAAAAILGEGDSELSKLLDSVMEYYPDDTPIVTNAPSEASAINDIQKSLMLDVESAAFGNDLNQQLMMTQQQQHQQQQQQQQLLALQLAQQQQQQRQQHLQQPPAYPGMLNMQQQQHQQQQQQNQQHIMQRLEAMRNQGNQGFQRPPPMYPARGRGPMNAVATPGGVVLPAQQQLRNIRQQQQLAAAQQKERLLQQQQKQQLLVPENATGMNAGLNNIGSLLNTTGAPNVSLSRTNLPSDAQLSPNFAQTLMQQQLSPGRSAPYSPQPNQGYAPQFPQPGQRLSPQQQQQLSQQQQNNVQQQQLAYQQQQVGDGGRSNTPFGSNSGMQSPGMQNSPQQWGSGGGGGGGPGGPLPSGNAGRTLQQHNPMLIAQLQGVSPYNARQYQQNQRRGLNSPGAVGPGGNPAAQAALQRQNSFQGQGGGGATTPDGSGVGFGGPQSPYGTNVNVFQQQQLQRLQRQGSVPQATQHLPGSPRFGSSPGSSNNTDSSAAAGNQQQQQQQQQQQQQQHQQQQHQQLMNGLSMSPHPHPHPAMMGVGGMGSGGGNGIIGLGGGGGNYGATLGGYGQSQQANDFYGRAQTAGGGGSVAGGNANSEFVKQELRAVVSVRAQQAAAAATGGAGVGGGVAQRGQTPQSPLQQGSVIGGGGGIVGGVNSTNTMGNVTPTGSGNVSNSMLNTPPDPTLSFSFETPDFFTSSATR

Row | SMILES | EC50
1 | CCOC(=O)/C=C(C)/C=C/C[C@@H](C)CCCC(C)C [(S)‐hydroprene] | 570 ± 150 nM
2 | CCOC(=O)NCCOc1ccc(Oc2ccccc2)cc1 [Fenoxycarb] | 3 ± 1 nM
3 | CC/C(=C\C(=O)OC)CC/C=C(\CC)CC[C@H]1O[C@@]1(C)CC [JH 0] | 213 ± 14 nM
4 | COC(=O)/C=C(\C)CC/C=C(\C)CC[C@H]1OC1(C)C [JH III] | 62 ± 5 nM
5 | CC[C@]1(C)O[C@@H]1CC/C(C)=C/CC/C(C)=C/C(=O)OC [JH II] | 50 ± 17 nM
6 | CC/C(=C\CC/C(C)=C/C(=O)OC)CC[C@H]1O[C@@]1(C)CC [JH I] | 65 ± 11 nM
7 | COC(C)(C)CCCC(C)C/C=C/C(C)=C/C(=O)OC(C)C (stereo not drawn) [Methoprene] | 1100 ± 230 nM
8 | COC(=O)/C=C(\C)CC/C=C(\C)CCC=C(C)C [Methyl farnesoate] | 160 ± 7 nM

same assay, conditions: agonist; 30 °C, 18 h; Tai co-expressed; BmkJHRE x 2 reporter

Row | SMILES | EC50
9 | CC(COc1ccc(Oc2ccccc2)cc1)Oc1ccccn1 (stereo not drawn) [Pyriproxyfen] | 87 ± 12 nM

Source: article PMC8487040, “Detection of juvenile hormone agonists by a new reporter gene assay using yeast expressing Drosophila methoprene‐tolerant” (FEBS Open Bio, 2021)
